Results reported in patent US11617726B2, “Method for preventing, treating, or ameliorating a microbial infection” (priority 2018, dated 2023).
Values after ≈ are worked out from the molar mass of the structure shown. Where two headings read alike, the source gives them in different places.

Key:
[1] = system: Acinetobacter baumannii isolates and Acinetobacter baumannii ATCC BAA 747; test: MIC determination by broth dilution method (CLSI M07-A9); assay type: cell-based; settings: Acinetobacter baumannii
Protocol: (§1) Minimum Inhibitory Concentration (MIC) is the lowest concentration of an antimicrobial agent that prevents visible growth of a microorganism in an agar or broth dilution susceptibility test. MIC of thymoquinone was determined by the broth dilution method against 33 MDR Acinetobacter baumannii strains and standard sensitive culture collection strain of Acinetobacter baumannii and Pseudomonas aeruginosa. The MIC of gentamicin was deter lined by broth dilution method against six MDR Acinetobacter baumannii strains and standard sensitive culture collection strains of Acinetobacter baumannii and Pseudomonas aeruginosa. MIC testing was performed according to the recommendations and guidelines of Clinical Laboratory Standard Institutes (CLSI M07-A9; 2012). Clinical and Laboratory Standards Institute (CLSI), “Methods for Dilution Antimicrobial Susceptibility Tests for Bacteria That Grow Aerobically; Approved Standard,” Document M07-A9, Clinical and Laboratory Standards Institute (CLSI), Wayne, Pa., USA, 2012.
(§2) Twenty-one grams of Mueller-Hinton Broth (MHB) was suspended in 1 Liter distilled water and then boiled to dissolve the powder completely. The medium was sterilized by autoclaving at 121° C. for 15 min. After autoclaving, the medium was cooled to room temperature before use or stored in the fridge until used.
(§3) Thymoquinone was weighed and dissolved in Dimethyl sulfoxide (DMSO) to produce a thymoquinone stock solution with a concentration of 5,120 μg/ml. Gentamicin sulfate was weighed and dissolved in water to produce a gentamicin sulfate stock solution with a concentration of 5,120 μg/ml, equivalent to gentamicin base.
(§4) Dilutions of thymoquinone and gentamicin sulfate stock solutions were prepared volumetrically in the MHB as follows:
(§5) One mL of original stock solution (5,120 μg/ml) was added to 9 ml sterile MHB to give the working first dilution (512 μg/mL). 12 sterile 7 mL PJ tubes were arranged in a rack in a row. Each tube contained one mL sterile MHB. Ten tubes were labeled as 128 μg/mL, 64 μg/mL, 32 μg/mL, 16 μg/mL, 8 μg/mL, 4 μg/mL, 2 μg/mL, 1 μg/mL, 0.5 μg/mL and 0.25 μg/mL. The eleventh and twelfth tubes were labeled as positive and negative control, respectively.
(§6) The working dilution (512 μg/mL) was serially diluted to give two-fold dilutions. One mL of the working dilution (512 μg/mL) was dispensed in the first tube (labeled as 128 μg/mL) to give a concentration of 256 μg drug/mL MHB. One mL of the first tube was added to the second tube (labeled as 64 μg/mL) to give a concentration of 128 μg drug/mL MHB. One mL of the second tube was transferred to the third tube (labeled as 32 μg/mL) to give a concentration of 64 μg drug/mL MHB. One mL of the third tube was added to the fourth tube (labeled as 16 μg/mL) to give a concentration of 32 μg drug/mL MHB. One mL of the fourth tube was dispensed in the fifth tube (labeled as 8 μg/mL) to give a concentration of 16 μg drug/mL MHB. One mL of the fifth tube was dispensed in the sixth tube (labeled as 4 μg/mL) to give a concentration of 8 μg drug/mL MHB. One mL of the sixth tube was added to the seventh tube (labeled as 2 μg/mL) to give a concentration of 4 μg drug/mL MHB. One mL of the seventh tube was added to the eighth tube (labeled as 1 μg/mL) to give a concentration of 2 μg drug/mL MHB. One mL of the eighth tube was transferred to the ninth tube (labeled as 0.5 μg/mL) to give a concentration of 1 μg drug/mL MHB. One mL of the ninth tube was transferred to the tenth tube (labeled as 0.25 μg/mL) to give a concentration of 0.5 μg drug/mL MHB. The contents were mixed thoroughly by pipetting up and down three times. One mL of the content of the tenth tube was discarded.
(§7) The inoculum suspensions (at 1-2×10^8 CFU/mL) were diluted 1:100 in MHB to obtain 1×10^6 CFU/mL. One mL of the diluted inoculum suspension (1×10^6 CFU/mL) was transferred to each tube except tube 12.
(§8) All inoculated tubes were incubated for 16-20 hours at 37° C. aerobically. […]

[2] = system: Pseudomonas aeruginosa ATCC 27853; test: as above; assay type: cell-based; settings: Pseudomonas aeruginosa, ATCC27853, P. aeruginosa ATCC 27853, read-out: MIC
Protocol: as §1, §2, §3, §4, §5, §6, §7, §8

Compound: CC1=CC(=O)C(C(C)C)=CC1=O [Thymoquinone, 2-isopropyl-5-methylbenzo-1,4-quinone]
- MIC ([1]; BAA747, A. baumannii ATCC BAA 747 (standard sensitive strain), read-out: MIC): 32 µg/mL (≈ 195 µM)
- MIC ([1]; BAA747, isolate AB1, read-out: MIC): 32 µg/mL (≈ 195 µM)
- MIC ([1]; BAA747, isolate AB2, read-out: MIC): 32 µg/mL (≈ 195 µM)
- MIC ([1]; BAA747, isolate AB3, read-out: MIC): 32 µg/mL (≈ 195 µM)
- MIC ([1]; BAA747, isolate AB4, read-out: MIC): 32 µg/mL (≈ 195 µM)
- MIC ([1]; BAA747, isolate AB5, read-out: MIC): 32 µg/mL (≈ 195 µM)
- MIC ([1]; BAA747, isolate AB6, read-out: MIC): 64 µg/mL (≈ 390 µM)
- MIC ([1]; BAA747, isolate AB7, read-out: MIC): 32 µg/mL (≈ 195 µM)
- MIC ([1]; BAA747, isolate AB8, read-out: MIC): 32 µg/mL (≈ 195 µM)
- MIC ([1]; BAA747, isolate AB9, read-out: MIC): 32 µg/mL (≈ 195 µM)
- MIC ([1]; BAA747, isolate AB10, read-out: MIC): 16 µg/mL (≈ 97.4 µM)
- MIC ([1]; BAA747, isolate AB11, read-out: MIC): 32 µg/mL (≈ 195 µM)
- MIC ([1]; BAA747, isolate AB12, read-out: MIC): 32 µg/mL (≈ 195 µM)
- MIC ([1]; BAA747, isolate AB13, read-out: MIC): 32 µg/mL (≈ 195 µM)
- MIC ([1]; BAA747, isolate AB14, read-out: MIC): 32 µg/mL (≈ 195 µM)
- MIC ([1]; BAA747, isolate AB15, read-out: MIC): 32 µg/mL (≈ 195 µM)
- MIC ([1]; BAA747, isolate AB16, read-out: MIC): 64 µg/mL (≈ 390 µM)
- MIC ([1]; BAA747, isolate AB17, read-out: MIC): 64 µg/mL (≈ 390 µM)
- MIC ([1]; BAA747, isolate AB18, read-out: MIC): 32 µg/mL (≈ 195 µM)
- MIC ([1]; BAA747, isolate AB19, read-out: MIC): 64 µg/mL (≈ 390 µM)
- MIC ([1]; BAA747, isolate AB20, read-out: MIC): 64 µg/mL (≈ 390 µM)
- MIC ([1]; BAA747, isolate AB21, read-out: MIC): 32 µg/mL (≈ 195 µM)
- MIC ([1]; BAA747, isolate AB22, read-out: MIC): 64 µg/mL (≈ 390 µM)
- MIC ([1]; BAA747, isolate AB23, read-out: MIC): 32 µg/mL (≈ 195 µM)
- MIC ([1]; BAA747, isolate AB24, read-out: MIC): 32 µg/mL (≈ 195 µM)
- MIC ([1]; BAA747, isolate AB25, read-out: MIC): 32 µg/mL (≈ 195 µM)
- MIC ([1]; BAA747, isolate AB26, read-out: MIC): 64 µg/mL (≈ 390 µM)
- MIC ([1]; BAA747, isolate AB27, read-out: MIC): 64 µg/mL (≈ 390 µM)
- MIC ([1]; BAA747, isolate AB28, read-out: MIC): 64 µg/mL (≈ 390 µM)
- MIC ([1]; BAA747, isolate AB29, read-out: MIC): 64 µg/mL (≈ 390 µM)
- MIC ([1]; BAA747, isolate AB30, read-out: MIC): 32 µg/mL (≈ 195 µM)
- MIC ([1]; BAA747, isolate AB31, read-out: MIC): 32 µg/mL (≈ 195 µM)
- MIC ([1]; BAA747, isolate AB32, read-out: MIC): 32 µg/mL (≈ 195 µM)
- MIC ([1]; BAA747, isolate AB33, read-out: MIC): 32 µg/mL (≈ 195 µM)
- MIC [2]: 64 µg/mL (≈ 390 µM)
